Assays:
[1] = target: T1, Prostaglandin G/H synthase 1 (Ovis aries) (UniProt P05979); test: Inhibition of ovine COX1 using arachidonic acid as substrate at 30 uM preincubated for 10 mins before substrate addition measured after 5 mins by EIA
T1 sequence (whole entry): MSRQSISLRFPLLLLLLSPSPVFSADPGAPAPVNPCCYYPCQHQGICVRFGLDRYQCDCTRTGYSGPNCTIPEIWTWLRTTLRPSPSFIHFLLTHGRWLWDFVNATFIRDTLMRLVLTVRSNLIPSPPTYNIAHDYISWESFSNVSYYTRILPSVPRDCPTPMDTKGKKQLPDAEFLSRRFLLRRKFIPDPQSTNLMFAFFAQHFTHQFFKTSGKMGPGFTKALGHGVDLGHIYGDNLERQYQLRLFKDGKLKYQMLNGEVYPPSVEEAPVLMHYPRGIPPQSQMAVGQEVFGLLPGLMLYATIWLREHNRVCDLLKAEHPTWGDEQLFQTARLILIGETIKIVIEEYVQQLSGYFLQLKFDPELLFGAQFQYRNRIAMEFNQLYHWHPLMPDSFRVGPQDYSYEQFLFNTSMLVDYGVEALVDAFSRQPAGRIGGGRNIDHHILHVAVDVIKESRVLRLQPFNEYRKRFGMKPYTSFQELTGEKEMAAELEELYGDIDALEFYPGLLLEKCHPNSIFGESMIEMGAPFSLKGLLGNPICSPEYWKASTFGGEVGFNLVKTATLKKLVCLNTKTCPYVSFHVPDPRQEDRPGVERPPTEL

[2] = target: T2, Prostaglandin G/H synthase 1 (Ovis aries, UniProt P05979); test: Inhibition of ovine COX1 using arachidonic acid as substrate preincubated for 10 mins before substrate addition measured after 5 mins by EIA
T2 sequence (P05979 whole entry): T1 sequence (whole entry)

[3] = tested on: Rattus norvegicus; test: Antiinflammatory activity in Sprague-Dawley rat assessed as inhibition of carrageenan-induced paw edema at 150 umol/kg, po administered 1 hr before carrageenan challenge measured after 3 hrs; assay type: functional
[4] = tested on: Rattus norvegicus; test: Antiinflammatory activity in Sprague-Dawley rat assessed as inhibition of carrageenan-induced paw edema at 150 umol/kg, po administered 1 hr before carrageenan challenge measured after 5 hrs; assay type: functional
[5] = target: T3, Prostaglandin G/H synthase 2 (Ovis aries) (UniProt P79208); settings: 30 uM
T3 sequence (whole entry): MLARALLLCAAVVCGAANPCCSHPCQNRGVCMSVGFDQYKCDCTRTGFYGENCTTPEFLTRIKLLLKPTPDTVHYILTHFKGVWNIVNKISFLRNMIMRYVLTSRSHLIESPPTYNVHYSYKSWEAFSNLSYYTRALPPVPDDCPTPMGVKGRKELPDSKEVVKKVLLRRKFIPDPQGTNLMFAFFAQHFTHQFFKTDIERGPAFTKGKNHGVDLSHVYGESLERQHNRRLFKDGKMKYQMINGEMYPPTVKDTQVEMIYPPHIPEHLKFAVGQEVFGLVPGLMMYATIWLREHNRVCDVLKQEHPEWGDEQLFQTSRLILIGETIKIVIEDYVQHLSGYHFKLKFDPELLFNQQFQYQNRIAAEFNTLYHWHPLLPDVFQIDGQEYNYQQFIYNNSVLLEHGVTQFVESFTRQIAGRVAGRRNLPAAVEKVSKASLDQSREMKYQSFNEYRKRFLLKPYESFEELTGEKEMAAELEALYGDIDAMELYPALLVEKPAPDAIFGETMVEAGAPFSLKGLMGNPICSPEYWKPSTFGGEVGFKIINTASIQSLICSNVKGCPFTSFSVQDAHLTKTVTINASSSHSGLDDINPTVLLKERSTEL
Description: Inhibition of ovine COX2 using arachidonic acid as substrate at 30 uM preincubated for 10 mins before substrate addition measured after 5 mins by EIA

Structure (SMILES)	inhibition [1] [%]	IC50 [2] [µM]	inhibition in vivo at 150 µmol/kg [3] [%]	inhibition in vivo at 150 µmol/kg [4] [%]	inhibition [5] [%]
CC(=O)c1c(C)cc2cccc(OCc3cccc(Cl)c3)c2c1O	67.1	22.2	26.6	37	82.1
Cc1cc(OCc2ccc(I)cc2)c2c(c1)C(=O)c1cccc(OCc3ccc(I)cc3)c1C2=O	64.2	> 30	36.1	54.6	77.8
CC(=O)c1c(C)cc2cccc(OCc3ccccc3Br)c2c1O	63.6	24.5	25.5	46.5	83.1
CCCCOc1cccc2c1C(=O)c1c(OCCCC)cc(C)cc1C2=O	26				42
CCCOc1cccc2cc(C)c(C(C)=O)c(O)c12	53.5				35.4
CC(=O)c1c(C)cc2cccc(O)c2c1OC(C)C	62.2				54.9
Cc1cc(O)c2c(c1)C(=O)c1cccc(O)c1C2=O [CHRYSOPHANOL]	29.4	46.2			42.1
CC(=O)c1c(C)cc2cccc(OCc3ccccc3)c2c1O	83.4	15.2	30.3	54.2	89.9
CC(=O)c1c(C)cc2cccc(O)c2c1O [NEPODIN]	68.2	27.4			59.4
Cc1cc(OCc2ccccc2Br)c2c(c1)C(=O)c1cccc(OCc3ccccc3Br)c1C2=O	27.2				62
C=CCOc1cccc2c1C(=O)c1c(OCC=C)cc(C)cc1C2=O	44.3	> 30	35.6	50.9	81.5
CCOc1cccc2cc(C)c(C(C)=O)c(O)c12	62.1				54.2
CC(=O)c1c(C)cc2cccc(O)c2c1OCc1cccc(Cl)c1	34.9				64.9
COCOc1c(C(C)=O)c(C)cc2cccc(O)c12	67.1				61.5
COc1cccc2c1C(=O)c1c(OC)cc(C)cc1C2=O	59.2				62.1
Cc1cc(OCc2ccccc2)c2c(c1)C(=O)c1cccc(OCc3ccccc3)c1C2=O	41.4	> 30	28.2	45.1	76.5
COCOc1cccc2cc(C)c(C(C)=O)c(O)c12	80.6	17.2	36.4	55.8	75
COc1cccc2cc(C)c(C(C)=O)c(O)c12	69.8				61.7
CCCOc1cccc2c1C(=O)c1c(OCCC)cc(C)cc1C2=O	39.6				58.7
CC(=O)c1c(C)cc2cccc(O)c2c1OCc1ccccc1Br	37.2				67.5
CCCCOc1cccc2cc(C)c(C(C)=O)c(O)c12	28.5				31.9
CC(=O)c1c(C)cc2cccc(OC(C)C)c2c1O	70.9				62.6
CC(=O)c1c(C)cc2cccc(O)c2c1OCc1ccccc1	60.2				68.2
CCOc1c(C(C)=O)c(C)cc2cccc(O)c12	58.4				42.9
CCCCOc1c(C(C)=O)c(C)cc2cccc(O)c12	40.2				37.9
COc1c(C(C)=O)c(C)cc2cccc(O)c12	65.5				55.5
Cc1cc(OCc2cccc(Cl)c2)c2c(c1)C(=O)c1cccc(OCc3cccc(Cl)c3)c1C2=O	25.4				61
CCOc1cccc2c1C(=O)c1c(OCC)cc(C)cc1C2=O	43.7				55.5
CCCOc1c(C(C)=O)c(C)cc2cccc(O)c12	51.4				47
CC(C)Cc1ccc(C(C)C(=O)O)cc1 (stereo not drawn) [IBUPROFEN]			32.3	43.5	

Reference: ChEMBL document CHEMBL3259581 (Eur J Med Chem, 2014)
